Experimental data taken from patent US20250122166A1, “SUBSTITUTED N-((2-(2,6-DIOXOPIPERIDIN-3-YL)-1-OXOISOINDOLIN-4-YL)METHYL)BENZAMIDE ANALOGS AS MODULATORS OF CEREBLON PROTEIN” (ST. JUDE CHILDREN'S RESEARCH HOSPITAL, INC., priority 2021, published 2025).

What was measured:
MOLM-13 cells = assay: Cell proliferation assay (Cell Titer-Glo, 72 h); assay type: cell-based; conditions: Homo sapiens, 72 h incubation, * = cytostatic 50%
Method: MOLM-13 cell line was purchased from the Leibniz Institute DSMZ (ACC 554). The cells were cultured according to recommendations in RPMI 1640 cell culture media with 20% FBS (DSMZ). Exponentially growing MOLM-13 cells were plated at 1250 cells per well in Corning 8804BC white 384-well assay plates and incubated overnight at 37° C. in a humidified 5% CO2 incubator. Compounds were transferred to the assay plate from a dose-response plate using a Pintool on a Biomek FXP Laboratory Automation Workstation (Beckman Coulter). Cytotoxicity was determined following 72 hours of incubation using Promega Cell Titer Glo reagent according to the manufacturer's recommendation. Luminescence was measured on an Envision plate reader (Perkin-Elmer).
Compounds were screened in human cancer cell lines and each cell line was cultured in the complete medium recommended by the vendor and seeded in Corning 8804BC white 384-well assay plates at density of 1250 cells per well for MOLM-13 cells. After overnight incubation at 37° C. in a humidified 5% CO2 incubator, cells were treated with compounds in dose-response format using a Pintool on a Biomek FXP Laboratory Automation Workstation (Beckman Coulter). After 72h incubation, cell proliferation was assessed using Cell Titer-Glo (CTG) luminescent cell viability assay (Promega) according to the manufacturer's instruction. Luminescence signal was measured using an Envision plate reader (Perkin-Elmer).

6XHis-CRBN-DDB1 protein = 6XHis-CRBN-DDB1 protein (Homo sapiens (Human), UniProt Q96SW2); assay: CRBN fluorescence polarization assay (competitive, Cy5-O-Len probe); assay type: binding; conditions: 6XHis-CRBN-DDB1 200 nM, Cy5-O-Len probe 30 nM, 1 hour; mean of three determinations; read-out: CRBN FP (IC50)
Method: In this competitive fluorescent polarization assay Cy5 conjugated lenalidomide analog (Cy5—O-Len)^1 was used as a fluorescent probe. 6XHis-CRBN-DDB1 protein (200 nM) and Cy5—O-Len probe (30 nM) were combined in 20 mM HEPES pH 7, 150 mM NaCl, 0.005% Tween-20 assay buffer. 20 μL of this assay cocktail was dispensed into wells of Corning 3821 black 384-well plates. Compounds were transferred to the assay plate from a dose-response plate using a Pintool on a Biomek FXP Laboratory Automation Workstation (Beckman Coulter). The plates were incubated in the dark for 1 hour at room temperature and then read on an Envision plate reader (PerkinElmer, Massachusetts, USA). IC50 values were determined using a proprietary software RISE (Robust Investigation of Screening Experiments), developed in house on the Pipeline Pilot platform (Biovia, v. 17.2.0). Data represent the mean of three independent determinations.

Row | Compound | EC50 (MOLM-13 cells) [µM] | IC50 (6XHis-CRBN-DDB1 protein) [µM]
1 | O=C1CCC(N2Cc3c(CNC(=O)c4ccc(Br)cc4)cccc3C2=O)C(=O)N1 (centres unmarked) [Compound 18, 4-bromo-N-((2-(2,6-dioxopiperidin-3-yl)-1-oxoisoindolin-4-yl)methyl)benzamide] | < 1 | 
2 | COc1cccc(C(=O)NCc2cccc3c2CN(C2CCC(=O)NC2=O)C3=O)c1 (centres unmarked) [Compound 1, N-((2-(2,6-dioxopiperidin-3-yl)-1-oxoisoindolin-4-yl)methyl)-3-methoxybenzamide] | < 1 | 1 to 10
3 | COc1ccccc1C(=O)NCc1cccc2c1CN(C1CCC(=O)NC1=O)C2=O (centres unmarked) [Compound 29, N-((2-(2,6-dioxopiperidin-3-yl)-1-oxoisoindolin-4-yl)methyl)-2-methoxybenzamide] | < 1 | 1 to 10
4 | O=C1CCC(N2Cc3c(CNC(=O)c4ccc(C(F)F)cc4)cccc3C2=O)C(=O)N1 (centres unmarked) [Compound 24, 4-(difluoromethyl)-N-((2-(2,6-dioxopiperidin-3-yl)-1-oxoisoindolin-4-yl)methyl)benzamide] | < 1 | 1 to 10
5 | O=C1CCC(N2Cc3c(CNC(=O)c4ccc(F)cc4)cccc3C2=O)C(=O)N1 (centres unmarked) [Compound 7, N-((2-(2,6-dioxopiperidin-3-yl)-1-oxoisoindolin-4-yl)methyl)-4-fluorobenzamide] | < 1 | 1 to 10
6 | CCCc1ccc(C(=O)NCc2cccc3c2CN(C2CCC(=O)NC2=O)C3=O)cc1 (centres unmarked) [Compound 30, N-((2-(2,6-dioxopiperidin-3-yl)-1-oxoisoindolin-4-yl)methyl)-4-propylbenzamide] | < 1 | < 1
7 | O=C1CCC(N2Cc3c(CNC(=O)c4ccccc4F)cccc3C2=O)C(=O)N1 (centres unmarked) [Compound 31, N-((2-(2,6-dioxopiperidin-3-yl)-1-oxoisoindolin-4-yl)methyl)-2-fluorobenzamide] | > 10 | 1 to 10
8 | O=C1CCC(N2Cc3c(CNC(=O)c4cccc(F)c4)cccc3C2=O)C(=O)N1 (centres unmarked) [Compound 9, N-((2-(2,6-dioxopiperidin-3-yl)-1-oxoisoindolin-4-yl)methyl)-3-fluorobenzamide] | < 1 | 1 to 10
9 | O=C1CCC(N2Cc3c(CNC(=O)c4ccc(F)cc4Cl)cccc3C2=O)C(=O)N1 (centres unmarked) [Compound 17, 2-chloro-N-((2-(2,6-dioxopiperidin-3-yl)-1-oxoisoindolin-4-yl)methyl)-4-fluorobenzamide] | < 1 | 1 to 10
10 | O=C1CCC(N2Cc3c(CNC(=O)c4cccs4)cccc3C2=O)C(=O)N1 (centres unmarked) [Compound 27, N-((2-(2,6-dioxopiperidin-3-yl)-1-oxoisoindolin-4-yl)methyl)thiophene-2-carboxamide] | > 10 | < 1
11 | O=C1CCC(N2Cc3c(CNC(=O)c4ccc(C(F)(F)F)cc4)cccc3C2=O)C(=O)N1 (centres unmarked) [Compound 13, N-((2-(2,6-dioxopiperidin-3-yl)-1-oxoisoindolin-4-yl)methyl)-4-(trifluoromethyl)benzamide] | < 1 | 1 to 10
12 | O=C1CCC(N2Cc3c(CNC(=O)c4cccc(C(F)F)c4)cccc3C2=O)C(=O)N1 (centres unmarked) [Compound 23, 3-(difluoromethyl)-N-((2-(2,6-dioxopiperidin-3-yl)-1-oxoisoindolin-4-yl)methyl)benzamide] | < 1 | 1 to 10
13 | O=C1CCC(N2Cc3c(CNC(=O)c4ccccc4)cccc3C2=O)C(=O)N1 (centres unmarked) [Compound 10, N-((2-(2,6-dioxopiperidin-3-yl)-1-oxoisoindolin-4-yl)methyl)benzamide] | 1 to 10 | 
14 | O=C1CCC(N2Cc3c(CNC(=O)c4ccco4)cccc3C2=O)C(=O)N1 (centres unmarked) [Compound 2, N-((2-(2,6-dioxopiperidin-3-yl)-1-oxoisoindolin-4-yl)methyl)furan-2-carboxamide] | > 10 | 
15 | O=C1CCC(N2Cc3c(CNC(=O)c4ccc(Cl)c(Cl)c4)cccc3C2=O)C(=O)N1 (centres unmarked) [Compound 14, 3,4-dichloro-N-((2-(2,6-dioxopiperidin-3-yl)-1-oxoisoindolin-4-yl)methyl)benzamide] | < 1 | 
16 | O=C1CCC(N2Cc3c(CNC(=O)c4ccncc4)cccc3C2=O)C(=O)N1 (centres unmarked) [Compound 6, N-((2-(2,6-dioxopiperidin-3-yl)-1-oxoisoindolin-4-yl)methyl)isonicotinamide] | > 10 | 
17 | O=C1CCC(N2Cc3c(CNC(=O)c4ccc(Cl)cc4Cl)cccc3C2=O)C(=O)N1 (centres unmarked) [Compound 28, 2,4-dichloro-N-((2-(2,6-dioxopiperidin-3-yl)-1-oxoisoindolin-4-yl)methyl)benzamide] | > 10 | 
18 | O=C1CCC(N2Cc3c(CNC(=O)c4ccc(Cl)c(C(F)(F)F)c4)cccc3C2=O)C(=O)N1 (centres unmarked) [Compound 21, 4-chloro-N-((2-(2,6-dioxopiperidin-3-yl)-1-oxoisoindolin-4-yl)methyl)-3-(trifluoromethyl)benzamide] | < 1 | 
19 | O=C1CCC(N2Cc3c(CNC(=O)c4cccnc4)cccc3C2=O)C(=O)N1 (centres unmarked) [Compound 8, N-((2-(2,6-dioxopiperidin-3-yl)-1-oxoisoindolin-4-yl)methyl)nicotinamide] | > 10 | 
20 | Cc1ccc(C(=O)NCc2cccc3c2CN(C2CCC(=O)NC2=O)C3=O)cc1 (centres unmarked) [Compound 11, N-((2-(2,6-dioxopiperidin-3-yl)-1-oxoisoindolin-4-yl)methyl)-4-methylbenzamide] | 1 to 10 | 

More lines, now with the values ahead:

Row | EC50 (MOLM-13 cells) [µM] | IC50 (6XHis-CRBN-DDB1 protein) [µM] | Compound
21 | < 1 | 1 to 10 | O=C1CCC(N2Cc3c(CNC(=O)c4ccc(OC(F)(F)F)cc4)cccc3C2=O)C(=O)N1 (centres unmarked) [Compound 34, N-((2-(2,6-dioxopiperidin-3-yl)-1-oxoisoindolin-4-yl)methyl)-4-(trifluoromethoxy)benzamide]
22 | > 10 | < 1 | O=C1CCC(N2Cc3c(CNC(=O)c4cccc5[nH]ccc45)cccc3C2=O)C(=O)N1 (centres unmarked) [Compound 39, N-((2-(2,6-dioxopiperidin-3-yl)-1-oxoisoindolin-4-yl)methyl)-1H-indole-4-carboxamide]
23 | < 1 | 1 to 10 | O=C1CCC(N2Cc3c(CNC(=O)c4ccccc4Cl)cccc3C2=O)C(=O)N1 (centres unmarked) [Compound 46, 2-chloro-N-((2-(2,6-dioxopiperidin-3-yl)-1-oxoisoindolin-4-yl)methyl)benzamide]
24 | > 10 | 1 to 10 | Cc1ccc(F)cc1C(=O)NCc1cccc2c1CN(C1CCC(=O)NC1=O)C2=O (centres unmarked) [Compound 32, N-((2-(2,6-dioxopiperidin-3-yl)-1-oxoisoindolin-4-yl)methyl)-5-fluoro-2-methylbenzamide]
25 | < 1 | < 1 | O=C1CCC(N2Cc3c(CNC(=O)c4ccc(Cl)cc4F)cccc3C2=O)C(=O)N1 (centres unmarked) [Compound 36, 4-chloro-N-((2-(2,6-dioxopiperidin-3-yl)-1-oxoisoindolin-4-yl)methyl)-2-fluorobenzamide]
26 | > 10 | < 1 | O=C1CCC(N2Cc3c(CNC(=O)c4cc(C(F)(F)F)cc(Cl)c4F)cccc3C2=O)C(=O)N1 (centres unmarked) [Compound 35, 3-chloro-N-((2-(2,6-dioxopiperidin-3-yl)-1-oxoisoindolin-4-yl)methyl)-2-fluoro-5-(trifluoromethyl)benzamide]
27 | < 1 | 1 to 10 | O=C1CCC(N2Cc3c(CNC(=O)c4ccccc4Nc4cccc(C(F)(F)F)c4)cccc3C2=O)C(=O)N1 (centres unmarked) [Compound 43, N-((2-(2,6-dioxopiperidin-3-yl)-1-oxoisoindolin-4-yl)methyl)-2-((3-(trifluoromethyl)phenyl)amino)benzamide]
28 | < 1 | < 1 | O=C(Cc1ccc(O)cc1)NCc1cccc2c1CN(C1CCC(=O)NC1=O)C2=O (centres unmarked) [Compound 40, N-((2-(2,6-dioxopiperidin-3-yl)-1-oxoisoindolin-4-yl)methyl)-2-(4-hydroxyphenyl)acetamide]
29 | < 1 | 1 to 10 | O=C1CCC(N2Cc3c(CNC(=O)c4ccccc4Nc4ccccc4)cccc3C2=O)C(=O)N1 (centres unmarked) [Compound 45, N-((2-(2,6-dioxopiperidin-3-yl)-1-oxoisoindolin-4-yl)methyl)-2-(phenylamino)benzamide]
30 | 1 to 10 | 1 to 10 | O=C1CCC(N2Cc3c(CNC(=O)c4ccc5nc[nH]c5c4)cccc3C2=O)C(=O)N1 (centres unmarked) [Compound 42, N-((2-(2,6-dioxopiperidin-3-yl)-1-oxoisoindolin-4-yl)methyl)-1H-benzo[d]imidazole-6-carboxamide]
31 | > 10 | < 1 | O=C1CCC(N2Cc3c(CNC(=O)c4c(F)ccc(F)c4Cl)cccc3C2=O)C(=O)N1 (centres unmarked) [Compound 33, 2-chloro-N-((2-(2,6-dioxopiperidin-3-yl)-1-oxoisoindolin-4-yl)methyl)-3,6-difluorobenzamide]
